Test results published in patent US20130183237A1 (priority 2007, published 2013).

Target: thrombin (Homo sapiens, UniProt P00734)
Details: fibrinogen 3 mg/ml, thrombin 20 nM, 37° C., no pre-incubation, dose-dependent
Method: 200 μl of fibrinogen (final concentration 3 mg/ml) were incubated with 100 μl of peptides (various concentrations) at 37° C. Clotting of fibrinogen was initiated by the addition of 100 μl of thrombin (final concentration 20 nM). All reagents and samples were dissolved in 50 mM Tris buffer (pH 7.4) containing 100 mM NaCl.

In the case of APPFDFEAIPEEYLDDES [AP18], the fibrinogen clotting time was “prolonged”.
